Results reported in publication PMC11673078, “DT-13 Mediates Ligand-Dependent Activation of PPARγ Response Elements In Vitro” (Biology, 2024).

Target: T1, PPARγ (Homo sapiens, UniProt P37231)
T1 construct: gene PPARG
T1 sequence (P37231 231-505 limits assumed): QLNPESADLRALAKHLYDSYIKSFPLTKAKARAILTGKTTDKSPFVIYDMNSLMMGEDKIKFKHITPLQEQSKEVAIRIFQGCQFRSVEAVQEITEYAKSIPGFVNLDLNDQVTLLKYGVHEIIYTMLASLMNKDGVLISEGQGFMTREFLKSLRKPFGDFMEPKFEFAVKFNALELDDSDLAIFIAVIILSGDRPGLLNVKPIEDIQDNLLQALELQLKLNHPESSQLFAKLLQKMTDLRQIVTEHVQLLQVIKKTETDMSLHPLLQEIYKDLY
Assay: fluorescence polarization competitive binding assay (PolarScreen PPARγ Green)

SMILES | IC50 [nM]
CCCCC/C=C\C=C\C(O)CCCCCCCC(=O)O (centres unmarked) [9-hydroxyoctadecadienoic acid] | 1800
O=C(Nc1ccccc1)c1cc([N+](=O)[O-])ccc1Cl [GW9662] | 22.3
